Among the data in US9718804B2, “GSK-3 inhibitors” (BRISTOL-MYERS SQUIBB COMPANY, priority 2013, dated 2017) are IC50 values, retold here.

The structures appear in SMILES notation. Like-named read-outs stand apart in the source and are kept apart here.

For one experiment, the target named is GSK3β (Homo sapiens, UniProt P49841). The experiment in a line: GSK3β kinase assay (Caliper LabChip, fluoresceinated peptide substrate). Type of experiment: biochemical. How it is done:
(§1) The kinase assay was performed in V-bottom 384-well plates. […] The reaction was incubated at room temperature for 20 hours and terminated by adding 45 μl of 35 mM EDTA to each sample. The reaction mixture was analyzed on the Caliper LabChip3000 (Caliper, Hopkinton, Mass.) by electrophoretic separation of the unphosphorylated substrate and phosphorylated product. […] Compounds were dissolved at 10 mM in dimethylsulfoxide (DMSO) and evaluated at eleven concentrations. IC50 values were derived by non-linear regression analysis.

Another experiment has as its target GSK3α (Homo sapiens, UniProt P49840). The experiment in a line: GSK3α kinase assay (Caliper LabChip, fluoresceinated peptide substrate). The experiment is classed as biochemical. How it is done:
as §1

The test system of a further experiment is pTau. The experiment in a line: pTau assay (no method described). Type of experiment: cell-based.
Where [1] appears, read: first value of the cell, 250 pM enzyme, 20 uM ATP, 20 hours at room temperature, read-out: GSK3β/α (nM): GSK3β IC50.

GSK3β, sequence (P49841 whole entry, species assumed): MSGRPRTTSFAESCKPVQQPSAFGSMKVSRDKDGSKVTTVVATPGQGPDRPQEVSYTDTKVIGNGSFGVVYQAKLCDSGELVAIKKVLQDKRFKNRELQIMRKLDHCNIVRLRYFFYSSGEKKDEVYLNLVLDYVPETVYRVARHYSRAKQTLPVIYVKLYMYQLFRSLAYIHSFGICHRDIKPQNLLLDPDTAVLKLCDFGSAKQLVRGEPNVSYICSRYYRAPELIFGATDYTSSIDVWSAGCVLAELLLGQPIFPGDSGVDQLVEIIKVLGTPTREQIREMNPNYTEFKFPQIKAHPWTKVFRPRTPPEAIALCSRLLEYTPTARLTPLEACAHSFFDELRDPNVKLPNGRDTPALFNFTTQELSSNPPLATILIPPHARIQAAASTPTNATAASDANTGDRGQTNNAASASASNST
GSK3α, sequence (P49840 whole entry, species assumed): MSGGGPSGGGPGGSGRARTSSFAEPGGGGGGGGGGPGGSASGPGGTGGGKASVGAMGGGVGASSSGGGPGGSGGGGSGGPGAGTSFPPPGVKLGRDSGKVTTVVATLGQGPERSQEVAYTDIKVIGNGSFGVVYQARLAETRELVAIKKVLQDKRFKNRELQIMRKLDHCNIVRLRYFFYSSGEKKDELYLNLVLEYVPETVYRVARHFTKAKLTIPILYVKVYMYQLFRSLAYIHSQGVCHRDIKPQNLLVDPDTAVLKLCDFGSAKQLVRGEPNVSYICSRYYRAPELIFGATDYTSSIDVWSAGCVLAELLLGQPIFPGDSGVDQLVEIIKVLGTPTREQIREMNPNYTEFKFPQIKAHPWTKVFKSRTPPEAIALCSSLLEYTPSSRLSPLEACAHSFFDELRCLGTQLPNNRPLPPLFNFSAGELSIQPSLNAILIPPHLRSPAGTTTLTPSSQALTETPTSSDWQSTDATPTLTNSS

For `O=C(Nc1cnccc1-c1ccccc1)c1ccnc(Nc2ccccn2)c1` [Example 1, N-(4-Phenylpyridin-3-yl)-2-(pyridin-2-ylamino)isonicotinamide], the IC50 on GSK3β (setting [1]) stood at 3.4 nM; on GSK3α it was 2.6 nM; in the experiment with pTau, 213 nM.

On to `O=C(Nc1cnccc1-c1ccccc1)c1ccnc(Nc2cccc(C(F)(F)F)n2)c1` [Example 2, N-(4-Phenylpyridin-3-yl)-2-((6-(trifluoromethyl)pyridin-2-yl)amino)isonicotinamide], for which the IC50 came to 6.8 nM at GSK3β (setting [1]), 7.3 nM against GSK3α and 574 nM in the experiment on pTau.

In the case of `O=C(Nc1cnccc1-c1ccccc1)c1ccnc(Nc2cc(C(F)(F)F)ccn2)c1` [Example 3, N-(4-Phenylpyridin-3-yl)-2-((4-(trifluoromethyl)pyridin-2-yl)amino)isonicotinamide], the IC50 on GSK3β is 9 nM; at GSK3α (second value of the cell, 250 pM enzyme, 20 uM ATP, 20 hours at room temperature, read-out: GSK3β/α (nM): GSK3α IC50), 8.7 nM; in the experiment with pTau it was 705 nM.

As for `Cc1ccc(Nc2cc(C(=O)Nc3cnccc3-c3ccccc3)ccn2)nc1` [Example 5, 2-((5-Methylpyridin-2-yl)amino)-N-(4-phenylpyridin-3-yl)isonicotinamide], the IC50 on GSK3β (setting [1]) was 0.77 nM; against GSK3α, 4.8 nM; in the experiment on pTau, 183 nM.

As to `Cc1ccnc(Nc2cc(C(=O)Nc3cnccc3-c3ccccc3)ccn2)c1` [Example 6, 2-((4-Methylpyridin-2-yl)amino)-N-(4-phenylpyridin-3-yl)isonicotinamide], the IC50 at GSK3β (setting [1]) turned out to be 1.1 nM; on GSK3α, 1.3 nM; with pTau it was 164 nM.

Turning to `O=C(Nc1cnccc1-c1ccccc1)c1ccnc(Nc2cccc(F)n2)c1` [Example 7, 2-((6-Fluoropyridin-2-yl)amino)-N-(4-phenylpyridin-3-yl)isonicotinamide], the values for the IC50 at GSK3β (setting [1]), against GSK3α and in the experiment with pTau were 8.5 nM, 5.9 nM and 249 nM, respectively.

Consider `O=C(Nc1cnccc1-c1ccccc1)c1ccnc(Nc2ccc(F)cn2)c1` [Example 8, 2-((5-Fluoropyridin-2-yl)amino)-N-(4-phenylpyridin-3-yl)isonicotinamide], for which the IC50 is 4.1 nM on GSK3β (setting [1]), 1.9 nM at GSK3α and 132 nM in the experiment on pTau.

Consider `Cc1cc(Nc2cc(C(=O)Nc3cnccc3-c3ccccc3)ccn2)ncc1F` [Example 9, 2-((5-Fluoro-4-methylpyridin-2-yl)amino)-N-(4-phenylpyridin-3-yl)isonicotinamide], for which the IC50 came out at 4.1 nM on GSK3β (setting [1]), 2.5 nM on GSK3α and 110 nM in the experiment on pTau.

As to `N#Cc1ccc(Nc2cc(C(=O)Nc3cnccc3-c3ccccc3)ccn2)nc1` [Example 10, 2-((5-Cyanopyridin-2-yl)amino)-N-(4-phenylpyridin-3-yl)isonicotinamide], the IC50 was 0.98 nM at GSK3β (setting [1]), 0.58 nM on GSK3α and 27 nM with pTau.

Regarding `CCOc1ccncc1NC(=O)c1ccnc(Nc2ccccn2)c1` [Example 11, N-(4-Ethoxypyridin-3-yl)-2-(pyridin-2-ylamino)isonicotinamide], the values for the IC50 at GSK3β (setting [1]), against GSK3α and in the experiment on pTau were 8.9 nM, 2.8 nM and 294 nM, respectively.

In the case of `CCOc1ccncc1NC(=O)c1ccnc(Nc2nccc3ccccc23)c1` [Example 12, N-(4-Ethoxypyridin-3-yl)-2-(isoquinolin-1-ylamino)isonicotinamide], the IC50 stood at 5.9 nM at GSK3β (setting [1]), 35 nM against GSK3α and 5400 nM in the experiment with pTau.

As for `CCOc1ccncc1NC(=O)c1ccnc(Nc2cc(C)ccn2)c1` [Example 13, N-(4-Ethoxypyridin-3-yl)-2-((4-methylpyridin-2-yl)amino)isonicotinamide], the IC50 at GSK3β (setting [1]) came out at 1.4 nM; against GSK3α, 2.3 nM; with pTau it was 154 nM.

For the compound `CCOc1ccncc1NC(=O)c1ccnc(Nc2ccc(C)cn2)c1` [Example 14, N-(4-Ethoxypyridin-3-yl)-2-((5-methylpyridin-2-yl)amino)isonicotinamide], the values for the IC50 on GSK3β (setting [1]), against GSK3α and in the experiment with pTau were 0.47 nM, 1.5 nM and 125 nM, respectively.

Take `CCOc1ccncc1NC(=O)c1ccnc(Nc2ccc(C(F)(F)F)cn2)c1` [Example 15, N-(4-Ethoxypyridin-3-yl)-2-((5-trifluoromethylpyridin-2-yl)amino)isonicotinamide]: the IC50 came to 1.3 nM on GSK3β (setting [1]), 0.56 nM against GSK3α and 42 nM in the experiment on pTau.

For `CCOc1ccncc1NC(=O)c1ccnc(Nc2ccc(C#N)cn2)c1` [Example 16, N-(4-Ethoxypyridin-3-yl)-2-((5-cyanopyridin-2-yl)amino)isonicotinamide], the IC50 was found to be 1.1 nM at GSK3β (setting [1]), 0.62 nM at GSK3α and 12 nM with pTau.

On to `O=C(Nc1cnccc1C1CCCCO1)c1ccnc(Nc2ccc(C(F)(F)F)cn2)c1` (stereo not shown) [Example 41, N-(4-(Tetrahydro-2H-pyran-2-yl)pyridin-3-yl)-2-((5-(trifluoromethyl)pyridin-2-yl)amino)isonicotinamide], for which the IC50 on GSK3β (setting [1]) came out at 13 nM; in the experiment on pTau it was 120 nM.

For `O=C(Nc1cnccc1-c1ccccn1)c1ccnc(Nc2ccc(C(F)(F)F)cn2)c1` [Example 43, N-([2,4′-Bipyridin]-3′-yl)-2-((5-(trifluoromethyl)pyridin-2-yl)amino)isonicotinamide], the values for the IC50 at GSK3β (setting [1]) and on GSK3α were 0.77 nM and 0.59 nM, respectively.

As for `O=C(Nc1cnc(F)cc1OCC(F)(F)F)c1ccnc(Nc2ccc(C(F)(F)F)cn2)c1` [Example 69, N-(6-Fluoro-4-(2,2,2-trifluoroethoxy)pyridin-3-yl)-2-((5-(trifluoromethyl)pyridin-2-yl)amino)isonicotinamide], the IC50 came out at 2.6 nM at GSK3β (setting [1]) and 165 nM in the experiment with pTau.

In the experiment with pTau, `Cc1cc(C2(C3CC3)OCCO2)c(NC(=O)c2ccnc(Nc3ccc(C(F)(F)F)cn3)c2)cn1` [Example 105, N-(4-(2-Cyclopropyl-1,3-dioxolan-2-yl)-6-methylpyridin-3-yl)-2-((5-(trifluoromethyl)pyridin-2-yl)amino)isonicotinamide] had an IC50 of 2 nM.

For `N#Cc1cnn(-c2cncc(NC(=O)c3ccnc(Nc4ccc(C(F)(F)F)cn4)c3)c2)c1` [Example 118, N-(5-(4-Cyano-1H-pyrazol-1-yl)pyridin-3-yl)-2-((5-(trifluoromethyl)pyridin-2-yl)amino)isonicotinamide], the values for the IC50 at GSK3β (setting [1]) and in the experiment with pTau were 7.3 nM and 360 nM, respectively.

As to `CCc1nc(Nc2cc(C(=O)Nc3cncc(-c4ccccc4F)c3)ccn2)ccc1C#N` [Example 148, 2-((5-Cyano-6-ethylpyridin-2-yl)amino)-N-(5-(2-fluorophenyl)pyridin-3-yl)isonicotinamide], the values for the IC50 on GSK3β (setting [1]) and in the experiment on pTau were 4.5 nM and 360 nM, respectively.

`COC(=O)c1cccc(Nc2cc(C(=O)Nc3cncc(-c4ccccc4F)c3)ccn2)n1` [Example 149, Methyl 6-((4-((5-(2-fluorophenyl)pyridin-3-yl)carbamoyl)pyridin-2-yl)amino)picolinate]: the IC50 on GSK3β (setting [1]) worked out at 2.7 nM; in the experiment with pTau it was 1700 nM.

Turning to `O=C(Nc1cncc(-c2ccccc2F)c1)c1ccnc(Nc2cccc(Cl)n2)c1` [Example 150], the IC50 at GSK3β (setting [1]) worked out at 3.5 nM; in the experiment with pTau, 1100 nM.

For `NC(=O)c1ccc(Nc2cc(C(=O)Nc3cncc(-c4ccccc4F)c3)ccn2)nc1` [Example 160, 6-((4-((5-(2-Fluorophenyl)pyridin-3-yl)carbamoyl)pyridin-2-yl)amino)nicotinamide], the IC50 at GSK3β (setting [1]) is 16 nM; against GSK3α, 7.6 nM.

As to `COC(=O)/C=C/c1ccc(Nc2cc(C(=O)Nc3cncc(-c4ccccc4F)c3)ccn2)nc1` [Example 161], the IC50 at GSK3β (setting [1]) came to 23 nM; at GSK3α it was 8 nM.

On to `N#Cc1ccc(-c2cncc(NC(=O)c3ccnc(Nc4cccc(C#N)n4)c3)c2)cc1` [Example 162, N-(5-(4-Cyanophenyl)pyridin-3-yl)-2-((6-cyanopyridin-2-yl)amino)isonicotinamide], for which the IC50 against GSK3β is 3.5 nM; at GSK3α, 2.4 nM.

Regarding `O=C(Nc1cnccc1OCC(F)(F)F)c1cc(Nc2ccc(C(F)(F)F)cn2)ncc1F` [Example 168, 5-Fluoro-N-(4-(2,2,2-trifluoroethoxy)pyridin-3-yl)-2-((5-(trifluoromethyl)pyridin-2-yl)amino)isonicotinamide], the IC50 worked out at 1.5 nM at GSK3β (setting [1]) and 0.73 nM against GSK3α.

For `CC(C)[S+]([O-])c1ccncc1NC(=O)c1ccnc(Nc2ccc(C(F)(F)F)cn2)c1` (stereo not shown) [Example 179, N-(4-(isopropylsulfinyl)pyridin-3-yl)-2-((5-(trifluoromethyl)pyridin-2-yl)amino)isonicotinamide], the values for the IC50 at GSK3β (setting [1]) and against GSK3α were 4.3 nM and 1.2 nM, respectively.

On to `CS(=O)(=O)c1ccncc1NC(=O)c1ccnc(Nc2ccc(C(F)(F)F)cn2)c1` [Example 181, N-(4-(Methylsulfonyl)pyridin-3-yl)-2-((5-(trifluoromethyl)pyridin-2-yl)amino)isonicotinamide], for which the IC50 at GSK3β (setting [1]) worked out at 1.2 nM; on GSK3α, 0.77 nM.

For the compound `C=CCOc1ccc(-c2cnncc2NC(=O)c2ccnc(Nc3ccc(C(F)(F)F)cn3)c2)cc1` [Example 199, N-(5-(4-(Allyloxy)phenyl)pyridazin-4-yl)-2-((5-(trifluoromethyl)pyridin-2-yl)amino)isonicotinamide], the IC50 turned out to be 8.7 nM at GSK3β (setting [1]) and 470 nM in the experiment on pTau.

Take `O=C(Nc1cnncc1C(=O)C1CC1)c1ccnc(Nc2ccc(C(F)(F)F)cn2)c1` [Example 202, N-(5-(Cyclopropanecarbonyl)pyridazin-4-yl)-2-((5-(trifluoromethyl)pyridin-2-yl)amino)isonicotinamide]: the IC50 on GSK3β (setting [1]) stood at 2.9 nM; on GSK3α, 1.1 nM.
